# In US9637473B2, “Acrylamide derivatives as antimalarial agents” (priority 2013, dated 2017):
# Counter-ions that a name gives are not always drawn.
# Test system: P. Falciparum NF54
# Experiment: Plasmodium falciparum in vitro assay ([3H]-hypoxanthine incorporation)
# Format: cell-based
# Settings: P. Falciparum NF54, erythrocytic stages in human red blood cells, 50% human serum
# In short: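 Activity against the blood stages of Plasmodium falciparum growing in human red blood cells was measured by how much [3H]-hypoxanthine the parasites took up. Filters were dried, sealed in plastic foil containing 10 mL of scintillation fluid, and read on a Betaplate liquid scintillation counter. IC50 values came from sigmoidal inhibition curves fitted in Microsoft Excel.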
row,SMILES,IC50
1,"CN(c1ccncc1)c1ccc(CN(C(=O)/C=C/c2ccc(C(F)(F)F)cc2)[C@H]2CCCNC2)cc1 [Example 2, (E)-N-[4-(Methyl-pyridin-4-yl-amino)-benzyl]-N-(S)-piperidin-3-yl-3-(4-trifluoromethyl-phenyl)-acrylamide]",82 nM

# Same assay, conditions: Plasmodium falciparum, Erythrocyte, P. Falciparum NF54, erythrocytic stages in human red blood cells, 50% human serum
row,IC50,SMILES
1,291 nM,"O=C(/C=C/c1ccc(C(F)(F)F)cc1)N(Cc1ccc(Nc2cncnc2)cc1)C1CCN(C2CCCC2)CC1 [Example 91, (E)-N-(1-Cyclopentyl-piperidin-4-yl)-N-[4-(pyrimidin-5-ylamino)-benzyl]-3-(4-trifluoromethyl-phenyl)-acrylamide]"
2,232 nM,"CN1CCN(c2ccc(CN(C(=O)/C=C/c3ccc(C(F)(F)F)cc3)C3CCN(C4CCCC4)CC3)cc2)CC1 [Example 200, (E)-N-(1-Cyclopentyl-piperidin-4-yl)-N-[4-(4-methyl-piperazin-1-yl)-benzyl]-3-(4-trifluoromethyl-phenyl)-acrylamide]"
3,44 nM,"O=C(/C=C/c1ccc(C(F)(F)F)cc1)N(Cc1ccc(Nc2ccncc2)nc1)C1CCN(C2CCCC2)CC1 [Example 103, (E)-N-(1-Cyclopentyl-piperidin-4-yl)-N-[6-(pyridin-4-ylamino)-pyridin-3-ylmethyl]-3-(4-trifluoromethyl-phenyl)-acrylamide]"
4,70 nM,"Cc1cc(Nc2ccc(CN(C(=O)/C=C/c3ccc(C(F)(F)F)cc3)C3CCN(C4CCN(C)CC4)CC3)cc2)ccn1 [Example 116, (E)-N-(1′-Methyl-[1,4′]bipiperidinyl-4-yl)-N-[4-(2-methyl-pyridin-4-ylamino)-benzyl]-3-(4-trifluoromethyl-phenyl)-acrylamide]"
5,286 nM,"COc1cc(Nc2ccc(CN(C(=O)/C=C/c3ccc(C(F)(F)F)cc3)C3CCN(C4CCCC4)CC3)cc2)ccn1 [Example 94, (E)-N-(1-Cyclopentyl-piperidin-4-yl)-N-[4-(2-methoxy-pyridin-4-ylamino)-benzyl]-3-(4-trifluoromethyl-phenyl)-acrylamide]"
6,22 nM,"CC(C)N1CCC(N(Cc2cccc(Nc3ccncc3)n2)C(=O)/C=C/c2ccc(C(F)(F)F)cc2)CC1 [Example 132, (E)-N-(1-Isopropyl-piperidin-4-yl)-N-[6-(pyridin-4-ylamino)-pyridin-2-ylmethyl]-3-(4-trifluoromethyl-phenyl)-acrylamide formate]"
7,355 nM,"CC(C)N1CCC(N(Cc2cncc(Nc3ccncn3)c2)C(=O)/C=C/c2ccc(C(F)(F)F)cc2)CC1 [Example 139, (E)-N-(1-Isopropyl-piperidin-4-yl)-N-[5-(pyrimidin-4-ylamino)-pyridin-3-ylmethyl]-3-(4-trifluoromethyl-phenyl)-acrylamide formate]"
8,133 nM,"Cc1nc(CN2CCC(N(Cc3ccc(N(C)c4ccncc4)cc3)C(=O)/C=C/c3ccc(C(F)(F)F)cc3)CC2)co1 [Example 4, (E)-N-[1-(2-Methyl-oxazol-4-ylmethyl)-piperidin-4-yl]-N-[4-(methyl-pyridin-4-yl-amino)-benzyl]-3-(4-trifluoromethyl-phenyl)-acrylamide]"
9,242 nM,"Cc1cc(Nc2ccc(CN(C(=O)/C=C/c3ccc(C(F)(F)F)cc3)C3CCN(Cc4cc(C)on4)CC3)cc2)ccn1 [Example 34, (E)-N-[1-(5-Methyl-isoxazol-3-ylmethyl)-piperidin-4-yl]-N-[4-(2-methyl-pyridin-4-ylamino)-benzyl]-3-(4-trifluoromethyl-phenyl)-acrylamide]"
10,123 nM,"CN(c1ccncc1)c1ccc(CN(C(=O)/C=C/c2ccc(C(F)(F)F)cc2)C2CCN(Cc3cccnc3)CC2)cc1 [Example 23, (E)-N-[4-(Methyl-pyridin-4-yl-amino)-benzyl]-N-(1-pyridin-3-ylmethyl-piperidin-4-yl)-3-(4-trifluoromethyl-phenyl)-acrylamide]"
11,48 nM,"CN(c1ccncc1)c1ccc(CN(C(=O)/C=C/c2ccc(OC(F)(F)F)cc2)C2CCN(Cc3ccccc3)CC2)cc1 [Example 146, (E)-N-(1-Benzyl-piperidin-4-yl)-N-[4-(methyl-pyridin-4-yl-amino)-benzyl]-3-(4-trifluoromethoxy-phenyl)-acrylamide]"
12,14 nM,"CN1CCC(N2CCC(N(Cc3ccc(N(C)c4ccncc4)cc3)C(=O)/C=C/c3ccc(C(F)(F)F)cc3)CC2)CC1 [Example 26, (E)-N-(1′-Methyl-[1,4′]bipiperidinyl-4-yl)-N-[4-(methyl-pyridin-4-yl-amino)-benzyl]-3-(4-trifluoromethyl-phenyl)-acrylamide]"
13,303 nM,"CC(C)N1CCC(N(Cc2cccc(Nc3ccncc3F)n2)C(=O)/C=C/c2ccc(C(F)(F)F)cc2)CC1 [Example 131, (E)-N-[6-(3-Fluoro-pyridin-4-ylamino)-pyridin-2-ylmethyl]-N-(1-isopropyl-piperidin-4-yl)-3-(4-trifluoromethyl-phenyl)-acrylamide formate]"
14,160 nM,"CN(c1ccncc1)c1ccc(CN(C(=O)/C=C/c2ccc(S(C)(=O)=O)cc2)C2CCN(Cc3ccccc3)CC2)cc1 [Example 162, (E)-N-(1-Benzyl-piperidin-4-yl)-3-(4-methanesulfonyl-phenyl)-N-[4-(methyl-pyridin-4-yl-amino)-benzyl]-acrylamide]"
15,355 nM,"CN(c1ccncc1)c1ccc(CN(C(=O)/C=C/c2ccc(C(F)(F)F)cc2)C2CCN(Cc3nc4ccccc4n3C)CC2)cc1 [Example 21, (E)-N-[1-(1-Methyl-1H-benzoimidazol-2-ylmethyl)-piperidin-4-yl]-N-[4-(methyl-pyridin-4-yl-amino)-benzyl]-3-(4-trifluoromethyl-phenyl)-acrylamide]"
16,393 nM,"Cc1cc(Nc2ccc(CN(C(=O)/C=C/c3ccc(C(F)(F)F)cc3)C3CCN(C4CCCC4)CC3)cn2)ncn1 [Example 109, (E)-N-(1-Cyclopentyl-piperidin-4-yl)-N-[6-(6-methyl-pyrimidin-4-ylamino)-pyridin-3-ylmethyl]-3-(4-trifluoromethyl-phenyl)-acrylamide]"
17,64 nM,"CN(c1ccncc1)c1ccc(CN(C(=O)/C=C/c2ccc(C(F)(F)F)cc2)C2CCN(Cc3ccc(C#N)cc3)CC2)cc1 [Example 27, (E)-N-[1-(4-Cyano-benzyl)-piperidin-4-yl]-N-[4-(methyl-pyridin-4-yl-amino)-benzyl]-3-(4-trifluoromethyl-phenyl)-acrylamide]"
18,44 nM,"CC(=O)n1cc(CN2CCC(N(Cc3ccc(N(C)c4ccncc4)cc3)C(=O)/C=C/c3ccc(C(F)(F)F)cc3)CC2)c2ccccc21 [Example 28, (E)-N-[1-(1-Acetyl-1H-indol-3-ylmethyl)-piperidin-4-yl]-N-[4-(methyl-pyridin-4-yl-amino)-benzyl]-3-(4-trifluoromethyl-phenyl)-acrylamide]"
19,280 nM,"Cc1cc(Nc2ccc(CN(C(=O)/C=C/c3ccc(C(F)(F)F)cc3)C3CCN(Cc4cncnc4)CC3)cc2)ccn1 [Example 49, (E)-N-[4-(2-Methyl-pyridin-4-ylamino)-benzyl]-N-(1-pyrimidin-5-ylmethyl-piperidin-4-yl)-3-(4-trifluoromethyl-phenyl)-acrylamide]"
20,355 nM,"O=C(/C=C/c1ccc(C(F)(F)F)cc1)N(Cc1ccc(-c2ccccn2)cc1)C1CCN(C2CCCC2)CC1 [Example 198, (E)-N-(1-Cyclopentyl-piperidin-4-yl)-N-(4-pyridin-2-yl-benzyl)-3-(4-trifluoromethyl-phenyl)-acrylamide]"
21,50 nM,"COc1ccc(CN2CCC(N(Cc3ccc(N(C)c4ccncc4)cc3)C(=O)/C=C/c3ccc(C(F)(F)F)cc3)CC2)cc1 [Example 13, (E)-N-[1-(4-Methoxy-benzyl)-piperidin-4-yl]-N-[4-(methyl-pyridin-4-yl-amino)-benzyl]-3-(4-trifluoromethyl-phenyl)-acrylamide]"
22,91 nM,"Cc1cc(Nc2ccc(CN(C(=O)/C=C/c3ccc(C(F)(F)F)cc3)C3CCN(Cc4cnn(C)c4)CC3)cc2)ccn1 [Example 50, (E)-N-[1-(1-Methyl-1H-pyrazol-4-ylmethyl)-piperidin-4-yl]-N-[4-(2-methyl-pyridin-4-ylamino)-benzyl]-3-(4-trifluoromethyl-phenyl)-acrylamide]"
23,418 nM,"O=C(/C=C/c1ccc(C(F)(F)F)cc1)N(Cc1ccc(Nc2ccccc2)cc1)C1CCN(C2CCCC2)CC1 [Example 93, (E)-N-(1-Cyclopentyl-piperidin-4-yl)-N-(4-phenylamino-benzyl)-3-(4-trifluoromethyl-phenyl)-acrylamide]"
24,134 nM,"Cc1cc(Nc2ccc(CN(C(=O)/C=C/c3ccc(Cl)cc3)C3CCN(C4CCCC4)CC3)nc2)ccn1 [Example 171, (E)-3-(4-Chloro-phenyl)-N-(1-cyclopentyl-piperidin-4-yl)-N-[5-(2-methyl-pyridin-4-ylamino)-pyridin-2-ylmethyl]-acrylamide]"
25,127 nM,"CN1CCC(N2CCC(N(Cc3ccc(C(=O)c4ccncc4)cc3)C(=O)/C=C/c3ccc(C(F)(F)F)cc3)CC2)CC1 [Example 194, (E)-N-(1′-Methyl-[1,4′]bipiperidinyl-4-yl)-N-[4-(pyridine-4-carbonyl)-benzyl]-3-(4-trifluoromethyl-phenyl)-acrylamide]"
26,14 nM,"CN(c1ccncc1)c1ccc(CN(C(=O)/C=C/c2ccc(C(F)(F)F)cc2)C2CCN(CC3CC4C=CC3C4)CC2)cc1 (centres unmarked) [Example 10, (E)-N-(1′-Bicyclo[2.2.1]hept-5-en-2-ylmethyl-piperidin-4-yl)-N-[4-(methyl-pyridin-4-yl-amino)-benzyl]-3-(4-trifluoromethyl-phenyl)-acrylamide]"
27,184 nM,"O=C(/C=C/c1ccc(C(F)(F)F)cc1)N(Cc1ccc(-c2cccnc2)cc1)C1CCN(C2CCCC2)CC1 [Example 197, (E)-N-(1-Cyclopentyl-piperidin-4-yl)-N-(4-pyridin-3-yl-benzyl)-3-(4-trifluoromethyl-phenyl)-acrylamide]"
28,100 nM,"Cc1cc(Nc2ccc(CN(C(=O)/C=C/c3ccc(C(F)(F)F)cc3)C3CCN(Cc4cnc5ccccn45)CC3)cc2)ccn1 [Example 38, (E)-N-(1-Imidazo[1,2-a]pyridin-3-ylmethyl-piperidin-4-yl)-N-[4-(2-methyl-pyridin-4-ylamino)-benzyl]-3-(4-trifluoromethyl-phenyl)-acrylamide]"
